{
  "source": "patent US6569881B1",
  "about": "“Substituted benzimidazole, the production thereof and the use thereof as means against parasitic protozoa” (Bayer Aktiengesellschaft, priority 1999, dated 2003)",
  "type_in_all_cases": "in vivo, chicken chicks",
  "key": {"[1]": {"tested_on": "Eimeria acervulina, Eimeria maxima and Eimeria tenella", "assay": "Cage experiments coccidiosis/chicks, mixed experimental infection", "method": "(§1) The efficacy of the compounds according to the invention can be confirmed, for example, in cage experiments using the following experimental arrangement, in which the animals are treated with the respective individual components and with the mixtures of the individual components.\n(§2) An active compound-containing feed is prepared in such a way that the required amount of active compound is thoroughly mixed with a nutritionally balanced animal feed, e.g. with the chick feed indicated below.\n(§3) 8 to 12 day-old male chicken chicks raised under coccidea-free conditions (e.g. LSL Brinkschulte/Senden) receive the compounds according to the invention (test substances) from 3 days before (day -3) the infection (=a.i.) until 8 (9) days after the infection (=p.i.) with the feed in the concentration indicated in ppm. Three animals are kept in each cage. Per dose, one to a number of groups of this type are employed. Infection is carried out by means of a stomach tube directly into the crop using approximately 100,000 sporulated oocysts of Eimeria acervulina and with in each case approximately 30,000 oocysts of E. maxima and 40,000 sporulated oocysts of E. tenella. These are highly virulent strains. The exact infectious dose is adjusted such that if possible one of three experimentally infected untreated chicks dies due to infection. For the assessment of the efficacy, the following criteria are taken into consideration: weight increase from the start of the experiment to the end of the experiment, death rate due to infection, macroscopic assessment of the faeces with respect to diarrhoea and excretion of blood on days 5 and 7 p.i. (grade 0 to 6), macroscopic grade of the intestinal mucous membrane, in particular of the cecums (grade 0 to 6) and the oocyst excretion and also the proportion (in %) of the oocysts sporulating within 24 hours. The number of oocysts in the faeces was determined with the aid of the McMaster counting chamber (see Engelbrecht and coworkers “Parasitologische Arbeitsmethoden in Medizin und Veterinärmedizin, [Parasitological working methods in medicine and veterinary medicine] Akademie-Verlag, Berlin (1965)). The individual findings are related to the untreated noninfected control groups and an overall grade is calculated (cf. A. Haberkorn (1986), pp. 263 to 270 in Research in Avian Coccidiosis ed L. R. McDougald, L. P. Joyner, P. L. Long Proceedings of the Georgia Coccidiosis Conference Nov, 18-20, 1985 Athens/Ga. USA).\nIn the column “ppm”, the concentration of the active compound employed in the feed is indicated in ppm.\nIn the column “mortality”, the percentage of the animals which have died is indicated under % and the number of the animals which have died/animals employed in the experiment is indicated under n.\nIn the column “weight % of not inf. control”, the ratio of the weight of the treated animals to the weight of the noninfected control group is indicated.\n(§4) In the columns “dropping scores”, “lesion score” and “oocyst control”, individual details of the action are given.\nIn the column “% efficacy”, the overall rating is assessed; 0% means no action, 100% means complete action."}, "Eimeria acervulina": {"tested_on": "Eimeria acervulina", "assay": "Cage experiments coccidiosis/chicks, Eimeria acervulina part of the mixed infection", "settings": "for Efficacy against Eimeria acervulina (grade): first symbol of cell", "method": "as §1, §2, §3, §4"}, "Eimeria maxima": {"tested_on": "Eimeria maxima", "assay": "Cage experiments coccidiosis/chicks, Eimeria maxima part of the mixed infection", "settings": "for Efficacy against Eimeria maxima (grade): second symbol of cell", "method": "as §1, §2, §3, §4"}, "Eimeria tenella": {"tested_on": "Eimeria tenella", "assay": "Cage experiments coccidiosis/chicks, Eimeria tenella part of the mixed infection", "settings": "for Efficacy against Eimeria tenella (grade): third symbol of cell", "method": "as §1, §2, §3, §4"}, "[2]": {"settings": "0 ppm in feed (so in the source)"}, "[3]": {"settings": "0 ppm in feed (so in the source), grade 0 to 6"}},
  "data": [
    {"smiles": "Cc1oc(=O)oc1Cn1c(C(F)(F)F)nc2c(Cl)cc(C(F)(F)F)cc21", "note": "[Example 11]", "values": [
      {"measurement": "% efficacy tot.", "setting": "[1]; [2]", "value": 39, "unit": "%"},
      {"measurement": "mortality %", "setting": "[1]; [2]", "value": 0, "unit": "%"},
      {"measurement": "mortality n (died/employed)", "setting": "[1]; [2]", "value": "0/3"},
      {"measurement": "oocyst in % of inf. control tot.", "setting": "[1]; [2]", "value": 34, "unit": "%"},
      {"measurement": "weight % of not inf. control", "setting": "[1]; [2]", "value": 52, "unit": "%"},
      {"measurement": "dropping scores", "setting": "[1]; [3]", "value": 6},
      {"measurement": "lesion score", "setting": "[1]; [3]", "value": 6},
      {"measurement": "% efficay tot.", "setting": "[1]; 5 ppm", "value": 11, "unit": "%"},
      {"measurement": "dropping scores", "setting": "[1]; 5 ppm", "value": 6},
      {"measurement": "lesion score", "setting": "[1]; 5 ppm", "value": 6},
      {"measurement": "mortality %", "setting": "[1]; 5 ppm", "value": 33, "unit": "%"},
      {"measurement": "mortality n", "setting": "[1]; 5 ppm", "value": "1/3"},
      {"measurement": "oocyst in % of inf. control tot.", "setting": "[1]; 5 ppm", "value": "47 % of inf. control"},
      {"measurement": "weight % of not inf. control", "setting": "[1]; 5 ppm", "value": "42 % of not inf. control"},
      {"measurement": "% efficacy tot.", "setting": "[1]; 5 ppm in feed", "value": 0, "unit": "%"},
      {"measurement": "mortality %", "setting": "[1]; 5 ppm in feed", "value": 66, "unit": "%"},
      {"measurement": "mortality n (died/employed)", "setting": "[1]; 5 ppm in feed", "value": "2/3"},
      {"measurement": "oocyst in % of inf. control tot.", "setting": "[1]; 5 ppm in feed", "value": ">100", "unit": "%"},
      {"measurement": "weight % of not inf. control", "setting": "[1]; 5 ppm in feed", "value": 17, "unit": "%"},
      {"measurement": "dropping scores", "setting": "[1]; 5 ppm in feed, grade 0 to 6", "value": 6},
      {"measurement": "lesion score", "setting": "[1]; 5 ppm in feed, grade 0 to 6", "value": 6},
      {"measurement": "% efficay tot.", "setting": "[1]; 7.5 ppm", "value": 7, "unit": "%"},
      {"measurement": "dropping scores", "setting": "[1]; 7.5 ppm", "value": 6},
      {"measurement": "lesion score", "setting": "[1]; 7.5 ppm", "value": 6},
      {"measurement": "mortality %", "setting": "[1]; 7.5 ppm", "value": 0, "unit": "%"},
      {"measurement": "mortality n", "setting": "[1]; 7.5 ppm", "value": "0/3"},
      {"measurement": "oocyst in % of inf. control tot.", "setting": "[1]; 7.5 ppm", "value": "75 % of inf. control"},
      {"measurement": "weight % of not inf. control", "setting": "[1]; 7.5 ppm", "value": "58 % of not inf. control"},
      {"measurement": "% efficay tot.", "setting": "[1]; 10 ppm", "value": 22, "unit": "%"},
      {"measurement": "dropping scores", "setting": "[1]; 10 ppm", "value": 6},
      {"measurement": "lesion score", "setting": "[1]; 10 ppm", "value": 6},
      {"measurement": "mortality %", "setting": "[1]; 10 ppm", "value": 33, "unit": "%"},
      {"measurement": "mortality n", "setting": "[1]; 10 ppm", "value": "1/3"},
      {"measurement": "oocyst in % of inf. control tot.", "setting": "[1]; 10 ppm", "value": "72 % of inf. control"},
      {"measurement": "weight % of not inf. control", "setting": "[1]; 10 ppm", "value": "41 % of not inf. control"},
      {"measurement": "% efficacy tot.", "setting": "[1]; 25 ppm in feed", "value": 79, "unit": "%"},
      {"measurement": "mortality %", "setting": "[1]; 25 ppm in feed", "value": 0, "unit": "%"},
      {"measurement": "mortality n (died/employed)", "setting": "[1]; 25 ppm in feed", "value": "0/3"},
      {"measurement": "oocyst in % of inf. control tot.", "setting": "[1]; 25 ppm in feed", "value": 0, "unit": "%"},
      {"measurement": "weight % of not inf. control", "setting": "[1]; 25 ppm in feed", "value": 67, "unit": "%"},
      {"measurement": "dropping scores", "setting": "[1]; 25 ppm in feed, grade 0 to 6", "value": 2},
      {"measurement": "lesion score", "setting": "[1]; 25 ppm in feed, grade 0 to 6", "value": 0},
      {"measurement": "oocyst in % of inf. control ac.", "setting": "Eimeria acervulina; [2]", "value": 38, "unit": "%"},
      {"measurement": "oocyst in % of inf. control ac.", "setting": "Eimeria acervulina; 5 ppm", "value": "19 % of inf. control"},
      {"measurement": "oocyst in % of inf. control ac.", "setting": "Eimeria acervulina; 5 ppm in feed", "value": ">100", "unit": "%"},
      {"measurement": "oocyst in % of inf. control ac.", "setting": "Eimeria acervulina; 7.5 ppm", "value": "22 % of inf. control"},
      {"measurement": "oocyst in % of inf. control ac.", "setting": "Eimeria acervulina; 10 ppm", "value": "91 % of inf. control"},
      {"measurement": "oocyst in % of inf. control ac.", "setting": "Eimeria acervulina; 25 ppm in feed", "value": 0, "unit": "%"},
      {"measurement": "Efficacy against Eimeria acervulina (grade)", "setting": "Eimeria acervulina; Dose 5 ppm", "value": 0},
      {"measurement": "Efficacy against Eimeria acervulina (grade)", "setting": "Eimeria acervulina; Dose 10 ppm", "value": 1},
      {"measurement": "Efficacy against Eimeria acervulina (grade)", "setting": "Eimeria acervulina; Dose 25 ppm", "value": 2},
      {"measurement": "oocyst in % of inf. control max.", "setting": "Eimeria maxima; [2]", "value": 0, "unit": "%"},
      {"measurement": "oocyst in % of inf. control max.", "setting": "Eimeria maxima; 5 ppm", "value": ">100 % of inf. control"},
      {"measurement": "oocyst in % of inf. control max.", "setting": "Eimeria maxima; 5 ppm in feed", "value": 0, "unit": "%"},
      {"measurement": "oocyst in % of inf. control max.", "setting": "Eimeria maxima; 7.5 ppm", "value": ">100 % of inf. control"},
      {"measurement": "oocyst in % of inf. control max.", "setting": "Eimeria maxima; 10 ppm", "value": "0 % of inf. control"},
      {"measurement": "oocyst in % of inf. control max.", "setting": "Eimeria maxima; 25 ppm in feed", "value": 0, "unit": "%"},
      {"measurement": "Efficacy against Eimeria maxima (grade)", "setting": "Eimeria maxima; Dose 5 ppm", "value": 0},
      {"measurement": "Efficacy against Eimeria maxima (grade)", "setting": "Eimeria maxima; Dose 10 ppm", "value": 1},
      {"measurement": "Efficacy against Eimeria maxima (grade)", "setting": "Eimeria maxima; Dose 25 ppm", "value": 2},
      {"measurement": "oocyst in % of inf. control ten.", "setting": "Eimeria tenella; [2]", "value": 27, "unit": "%"},
      {"measurement": "oocyst in % of inf. control ten.", "setting": "Eimeria tenella; 5 ppm", "value": "91 % of inf. control"},
      {"measurement": "oocyst in % of inf. control ten.", "setting": "Eimeria tenella; 5 ppm in feed", "value": ">100", "unit": "%"},
      {"measurement": "oocyst in % of inf. control ten.", "setting": "Eimeria tenella; 7.5 ppm", "value": ">100 % of inf. control"},
      {"measurement": "oocyst in % of inf. control ten.", "setting": "Eimeria tenella; 10 ppm", "value": "44 % of inf. control"},
      {"measurement": "oocyst in % of inf. control ten.", "setting": "Eimeria tenella; 25 ppm in feed", "value": 0, "unit": "%"},
      {"measurement": "Efficacy against Eimeria tenella (grade)", "setting": "Eimeria tenella; Dose 5 ppm", "value": 0},
      {"measurement": "Efficacy against Eimeria tenella (grade)", "setting": "Eimeria tenella; Dose 10 ppm", "value": 1},
      {"measurement": "Efficacy against Eimeria tenella (grade)", "setting": "Eimeria tenella; Dose 25 ppm", "value": 2}
    ]}
  ]
}
